Measured values taken from patent US4075194A, “Novel synthetic undecapeptide and clinical assay” (Yeda Research and Development Co., Ltd., priority 1976, dated 1978).
Ends that are not written are not given here.

Assays:
[1] = system: antisera agglutinating CEA(1-11)-A--L-coated sheep erythrocytes; assay: Inhibition of passive hemagglutination; format: binding; conditions: serum concentration twice that of the hemagglutination titer
Method: Hemagglutination and Inhibition of Hemagglutination. Sheep erythrocytes were treated with formalin, tanned, and coated with the CEA(1-11) peptide or with the conjugates (CEA(1-11)-A--L or CEA(1-11)-BSA, Herbert: Handbook Exp. Immun., Oxford (1964), 720, Blackwell, Sci. Pub.
Passive microhemagglutination tests, Kabat: Structural Concepts in Immun. and Immunochem. (1968), Holt, Reinhart and Winston, Inc., N.Y., were performed on disposable microtiter plates (Cooke Engineering Co., Alexandira, Va.) by 2-fold serial dilutions of antisera in phosphate-buffered saline (0.15 M NaCl-0.01 M sodium phosphate buffer, pH 7.0), containing 0.1% ovalbumin (twice crystallized, Schwarz/Mann). The plates were incubated at room temperature and read after 2 and 4 hr.
In inhibition experiments serial dilutions of the respective inhibitor were allowed to react for 30 min with the antisera (at the last dilution that had given positive agglutination) prior to the addition of the coated erythrocytes. Inhibition results were also read after 2 and 4 hr.

anti-CEA(1-11)-BSA serum = assay: Inhibition of inactivation of CEA(1-11)-T4 by anti-CEA(1-11)-BSA serum; format: binding, rabbit; conditions: for inhibition of the inactivation of CEA(1-11)-T4: in words
Method: Inactivation and Inhibition of Inactivation of CEA(1-11)-coated T4 Bacteriophage. The preparation of CEA(1-11)-coated T4 bacteriophage was carried out according to the procedure described by Haimovich et al., Biochim. Biophys. Acta 207 (1970) 115, making use of glutaraldehyde as crosslinking agent. The resulting modified bacteriophage preparation was tested for inactivation with anti-CEA(1-11)-BSA serum, by incubation for 21/2 hr at 37° in the presence of different dilutions of the antiserum, and monitoring the surviving phage by subsequent plating with bacteria.
In inhibition experiments the inhibitors were allowed to react at room temperature, overnight, with the amount of antiserum that would have caused approximately 90% inactivation of the bacteriophage conjugate, Haimovich et al. Biochim. Biophys. Acta 207 (1970) 125. The modified bacteriophage was then added to the mixture and the number of surviving phage was determined as described above. The percentage of inhibition was calculated from the extent of inactivation in the presence and in the absence of the inhibitor.

[2] = Immunization of rabbits, antibody production; format: in vivo, rabbit; conditions: intradermal in complete Freund's adjuvant, in words
Method: Immunization Procedure. Antisera against the CEA(1-11) peptide were obtained by immunizing rabbits with CEA(1-11) as the free peptide and with the two conjugates CEA(1-11)-A--L and CEA(1-11)-BSA. The rabbits were immunized by multisite intradermal injections in complete Freund's adjuvant. Each rabbit received two injections of 4 mg at 2-week intervals and was subsequently bled weekly from the marginal vein, starting 1 week after the last injection.

With “LNFPTSEITLK [CEA(1-11), synthetic undecapeptide corresponding to the first eleven NH2-terminal residues of CEA, with leucine replacing valine in the 11-position]” the “lowest concentration of inhibitor that still prevents agglutination” value ([1]; antiserum against CEA(1-11)-A--L) was 1 µg/mL, the “lowest concentration of inhibitor that still prevents agglutination” value ([1]; antiserum against CEA(1-11)-BSA) was 10 µg/mL and the “lowest concentration of inhibitor that still prevents agglutination” value ([1]; antiserum against Crude CEA) was 100 µg/mL. For the same molecule, the “lowest concentration of inhibitor that still prevents agglutination” value ([1]; antiserum against Pure CEA) was 1 µg/mL, the “inhibition of the inactivation of CEA(1-11)-T4” value (anti-CEA(1-11)-BSA serum) was “could be inhibited” and the “Inhibition (%)” value (anti-CEA(1-11)-BSA serum; inhibitor concentration 0.001 μg/ml) was 0%. The “Inhibition (%)” value (anti-CEA(1-11)-BSA serum; inhibitor concentration 0.0033 μg/ml) was 38%, the “Inhibition (%)” value (anti-CEA(1-11)-BSA serum; inhibitor concentration 0.01 μg/ml) was 64% and the “Inhibition (%)” value (anti-CEA(1-11)-BSA serum; inhibitor concentration 0.033 μg/ml) was 82%. For the same molecule, the “Inhibition (%)” value (anti-CEA(1-11)-BSA serum; inhibitor concentration 0.1 μg/ml) was 92%, the “Inhibition (%)” value (anti-CEA(1-11)-BSA serum; inhibitor concentration 0.33 μg/ml) was 100% and the “Inhibition (%)” value (anti-CEA(1-11)-BSA serum; inhibitor concentration 1 μg/ml) was 98%. For the same molecule, the “Inhibition (%)” value (anti-CEA(1-11)-BSA serum; inhibitor concentration 3 μg/ml) was 100% and the “antibody production on immunization” value [2] was “antisera of low titer”.

B1: Pure CEA: carcinoembryonic antigen purified from colonic tumor tissue by perchloric acid extraction, chromatography and block electrophoresis (protein, UniProt P06731 35-685, looked up)
Cell adhesion molecule CEACAM5: KLTIESTPFNVAEGKEVLLLVHNLPQHLFGYSWYKGERVDGNRQIIGYVIGTQQATPGPAYSGREIIYPNASLLIQNIIQNDTGFYTLHVIKSDLVNEEATGQFRVYPELPKPSISSNNSKPVEDKDAVAFTCEPETQDATYLWWVNNQSLPVSPRLQLSNGNRTLTLFNVTRNDTASYKCETQNPVSARRSDSVILNVLYGPDAPTISPLNTSYRSGENLNLSCHAASNPPAQYSWFVNGTFQQSTQELFIPNITVNNSGSYTCQAHNSDTGLNRTTVTTITVYAEPPKPFITSNNSNPVEDEDAVALTCEPEIQNTTYLWWVNNQSLPVSPRLQLSNDNRTLTLLSVTRNDVGPYECGIQNELSVDHSDPVILNVLYGPDDPTISPSYTYYRPGVNLSLSCHAASNPPAQYSWLIDGNIQQHTQELFISNITEKNSGLYTCQANNSASGHSRTTVKTITVSAELPKPSISSNNSKPVEDKDAVAFTCEPEAQNTTYLWWVNGQSLPVSPRLQLSNGNRTLTLFNVTRNDARAYVCGIQNSVSANRSDPVTLDVLYGPDTPIISPPDSSYLSGANLNLSCHSASNPSPQYSWRINGIPQQHTQVLFIAKITPNNNGTYACFVSNLATGRNNSIVKSITVSASGTSPGLSA
For B1, the “inhibition of the inactivation of CEA(1-11)-T4” value (anti-CEA(1-11)-BSA serum) was “No inhibition”.
